Source: ChEMBL document CHEMBL1201862, “PubChem BioAssay data set” (2004)
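Protocol summary: plate cells (96-well), add compound at 5 concentrations, incubate 48 h, interpolate endpoints linearly. The concentration for 50% growth inhibition is given as GI50.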 The source made the active and inactive calls. Rule as the data show it: active = GI50 up to about 1.1 µM and inactive = higher.

Assays:
Assay in all cases: NCI tumour cell line growth inhibition, 48 h
SK-MEL-28 = system: SK-MEL-28
NCI-H23 = system: NCI-H23
786-0 = system: 786-0
U-251 = system: U-251
K562 = system: K562
UACC-257 = system: UACC-257
Hs-578T = system: Hs-578T
MDA-N = system: MDA-N
PC-3 = system: PC-3
NCI-H226 = system: NCI-H226
A549 = system: A549
Malme-3M = system: Malme-3M
NCI-H522 = system: NCI-H522
A498 = system: A498
SNB-19 = system: SNB-19
SNB-75 = system: SNB-75
UACC-62 = system: UACC-62
RPMI-8226 = system: RPMI-8226
HL-60 = system: HL-60
HOP-92 = system: HOP-92

Measured: GI50

CN(CCC(=O)N1CC(CCl)c2ccc([N+](=O)[O-])cc21)CCC(=O)N1CC(CCl)c2ccc([N+](=O)[O-])cc21 (centres undefined)
inactive: SK-MEL-28 15.5 µM | NCI-H23 14.7 µM | 786-0 10.9 µM | U-251 24.2 µM | K562 14.3 µM | UACC-257 9.2 µM | Hs-578T 2.85 µM | MDA-N 15 µM | PC-3 6.52 µM | NCI-H226 6.95 µM | A549 36.6 µM | Malme-3M 10.1 µM | NCI-H522 6.53 µM | A498 19.3 µM | SNB-19 > 100 µM | SNB-75 2.56 µM | UACC-62 12.3 µM | RPMI-8226 3.96 µM

CN(C)CCNC(=O)c1cc([N+](=O)[O-])ccn1
inactive: SK-MEL-28 > 100 µM | NCI-H23 20.9 µM | HL-60 20.3 µM | 786-0 42.5 µM | U-251 31 µM | K562 21.5 µM | UACC-257 16.3 µM | Hs-578T 46.8 µM | MDA-N 16.7 µM | PC-3 23.1 µM | NCI-H226 > 100 µM | A549 30.8 µM | Malme-3M 14.8 µM | NCI-H522 18.1 µM | A498 > 100 µM | SNB-19 33.6 µM | SNB-75 > 100 µM | UACC-62 19.2 µM | RPMI-8226 45.1 µM

CC(=O)OC(C(=O)NNC(=O)OC(C)(C)C)c1ccccc1 (centres undefined)
inactive: SK-MEL-28 > 100 µM | NCI-H23 > 100 µM | HOP-92 > 100 µM | 786-0 > 100 µM | U-251 > 100 µM | K562 > 100 µM | UACC-257 > 10 µM | Hs-578T > 100 µM | MDA-N > 100 µM | PC-3 > 100 µM | NCI-H226 > 100 µM | A549 > 100 µM | Malme-3M > 100 µM | NCI-H522 > 100 µM | SNB-19 > 100 µM | SNB-75 > 100 µM | UACC-62 > 100 µM | RPMI-8226 > 100 µM

COc1ccc(/C=N/n2c(=O)[nH]c3ccccc3c2=O)cc1
inactive: SK-MEL-28 > 100 µM | NCI-H23 > 100 µM | HOP-92 > 100 µM | 786-0 > 100 µM | U-251 > 100 µM | K562 > 100 µM | UACC-257 > 100 µM | Hs-578T 36.4 µM | MDA-N > 100 µM | PC-3 > 100 µM | NCI-H226 > 100 µM | A549 > 100 µM | A498 > 100 µM | SNB-19 > 100 µM | SNB-75 50.8 µM | UACC-62 > 100 µM | RPMI-8226 > 100 µM

Cc1nc2c(Cl)cc(Cl)cc2c(Cl)c1CCCl
inactive: SK-MEL-28 > 100 µM | NCI-H23 > 100 µM | HL-60 55.2 µM | 786-0 > 100 µM | U-251 > 100 µM | K562 80.5 µM | UACC-257 > 100 µM | Hs-578T 51.4 µM | MDA-N > 100 µM | PC-3 60.5 µM | NCI-H226 > 100 µM | A549 78.7 µM | Malme-3M > 100 µM | NCI-H522 87.1 µM | A498 72.4 µM | SNB-19 56.4 µM | SNB-75 42.9 µM | UACC-62 79.6 µM | RPMI-8226 57.5 µM

Cc1ccc(S(=O)(=O)Nc2ccccc2C(=O)c2ccc(C)c(C)c2)cc1
inactive: SK-MEL-28 > 100 µM | NCI-H23 > 100 µM | 786-0 > 100 µM | U-251 85.1 µM | UACC-257 53.1 µM | Hs-578T 60.5 µM | MDA-N 74.3 µM | PC-3 > 100 µM | NCI-H226 > 100 µM | A549 > 100 µM | Malme-3M 59 µM | NCI-H522 39.9 µM | A498 94.6 µM | SNB-19 > 100 µM | SNB-75 > 100 µM | UACC-62 88.5 µM | RPMI-8226 42.9 µM

COC(=O)C(=O)C(C(=O)C(=O)Nc1ccc(C)cc1C)c1nc2ccc(Cl)cc2nc1O (centres undefined)
inactive: SK-MEL-28 > 100 µM | NCI-H23 > 100 µM | HL-60 78 µM | HOP-92 > 100 µM | 786-0 > 100 µM | U-251 > 100 µM | UACC-257 > 100 µM | Hs-578T > 100 µM | MDA-N > 100 µM | PC-3 > 100 µM | NCI-H226 > 100 µM | A549 > 100 µM | NCI-H522 > 100 µM | SNB-19 > 100 µM | SNB-75 > 100 µM | UACC-62 > 100 µM

Cc1ccc(S(=O)(=O)OC2C(C3COC(C)(C)O3)OC3OC(C)(C)OC32)cc1 (centres undefined)
inactive: SK-MEL-28 > 100 µM | NCI-H23 > 100 µM | HOP-92 > 100 µM | 786-0 > 100 µM | U-251 > 100 µM | K562 > 100 µM | UACC-257 > 100 µM | Hs-578T > 100 µM | MDA-N > 100 µM | PC-3 > 100 µM | NCI-H226 > 100 µM | A549 > 100 µM | Malme-3M > 100 µM | NCI-H522 > 100 µM | A498 > 100 µM | SNB-19 > 100 µM | SNB-75 > 100 µM | UACC-62 > 100 µM

C/C=C\C(CC(=O)NCCC1CN(C(=O)c2ccccc2)c2ccccc21)CC(=O)OC (centres undefined)
inactive: SK-MEL-28 > 100 µM | NCI-H23 > 100 µM | HOP-92 > 100 µM | 786-0 > 100 µM | U-251 > 100 µM | K562 > 100 µM | UACC-257 > 100 µM | Hs-578T > 100 µM | MDA-N > 100 µM | PC-3 > 100 µM | A549 > 100 µM | Malme-3M > 100 µM | NCI-H522 > 100 µM | A498 > 100 µM | SNB-19 > 100 µM | SNB-75 > 100 µM | UACC-62 > 100 µM | RPMI-8226 > 100 µM

CCCCC/C(=N\c1[nH]cnc1C(N)=O)OCC
inactive: SK-MEL-28 > 100 µM | NCI-H23 > 100 µM | HL-60 > 100 µM | 786-0 > 100 µM | U-251 > 100 µM | K562 > 100 µM | UACC-257 > 100 µM | Hs-578T > 100 µM | MDA-N > 100 µM | PC-3 > 100 µM | NCI-H226 > 100 µM | A549 > 100 µM | Malme-3M > 100 µM | NCI-H522 75 µM | A498 > 100 µM | SNB-19 > 100 µM | UACC-62 > 100 µM | RPMI-8226 > 100 µM

CC1(C)CCOC(=O)C(Cl)CC1Cl (centres undefined)
inactive: SK-MEL-28 > 100 µM | NCI-H23 > 100 µM | 786-0 > 100 µM | U-251 > 100 µM | K562 > 100 µM | UACC-257 > 100 µM | Hs-578T > 100 µM | MDA-N > 100 µM | PC-3 > 100 µM | NCI-H226 > 100 µM | A549 > 100 µM | Malme-3M > 100 µM | NCI-H522 > 100 µM | A498 > 100 µM | SNB-19 > 100 µM | UACC-62 > 100 µM
